Read-outs that look alike come from different tables or passages of the source. Blank lines part the entries; values can stand above or below the compound they belong to.
How the values were obtained:
ER in T47D cells = ER in T47D cells (Homo sapiens (Human), UniProt P03372); assay: In-cell Western (ICW) ER degradation assay in T47D cells; format: cell-based; conditions: for DC50: ER degradation
CRBN/DDB1 = CRBN/DDB1 (Homo sapiens (Human), UniProt Q96SW2); format: binding; conditions: His tagged CRBN+DDB1, Cy5-labeled Thalidomide probe, one hour; read-out: CRBN HTRF IC50
Chain of CRBN/DDB1 (Q96SW2 whole entry, species assumed): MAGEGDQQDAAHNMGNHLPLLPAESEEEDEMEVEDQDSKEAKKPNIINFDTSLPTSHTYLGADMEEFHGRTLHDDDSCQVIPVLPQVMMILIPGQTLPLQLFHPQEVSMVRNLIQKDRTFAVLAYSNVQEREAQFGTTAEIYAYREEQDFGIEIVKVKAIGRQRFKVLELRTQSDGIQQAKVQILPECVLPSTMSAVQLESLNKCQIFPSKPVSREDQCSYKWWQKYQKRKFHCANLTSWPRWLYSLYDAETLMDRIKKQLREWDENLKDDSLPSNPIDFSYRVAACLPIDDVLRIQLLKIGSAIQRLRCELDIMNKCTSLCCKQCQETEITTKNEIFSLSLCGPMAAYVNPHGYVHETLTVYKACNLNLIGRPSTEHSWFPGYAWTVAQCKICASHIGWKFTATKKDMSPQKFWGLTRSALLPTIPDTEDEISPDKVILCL
Chain of CRBN/DDB1 (Q16531 whole entry partner, species assumed): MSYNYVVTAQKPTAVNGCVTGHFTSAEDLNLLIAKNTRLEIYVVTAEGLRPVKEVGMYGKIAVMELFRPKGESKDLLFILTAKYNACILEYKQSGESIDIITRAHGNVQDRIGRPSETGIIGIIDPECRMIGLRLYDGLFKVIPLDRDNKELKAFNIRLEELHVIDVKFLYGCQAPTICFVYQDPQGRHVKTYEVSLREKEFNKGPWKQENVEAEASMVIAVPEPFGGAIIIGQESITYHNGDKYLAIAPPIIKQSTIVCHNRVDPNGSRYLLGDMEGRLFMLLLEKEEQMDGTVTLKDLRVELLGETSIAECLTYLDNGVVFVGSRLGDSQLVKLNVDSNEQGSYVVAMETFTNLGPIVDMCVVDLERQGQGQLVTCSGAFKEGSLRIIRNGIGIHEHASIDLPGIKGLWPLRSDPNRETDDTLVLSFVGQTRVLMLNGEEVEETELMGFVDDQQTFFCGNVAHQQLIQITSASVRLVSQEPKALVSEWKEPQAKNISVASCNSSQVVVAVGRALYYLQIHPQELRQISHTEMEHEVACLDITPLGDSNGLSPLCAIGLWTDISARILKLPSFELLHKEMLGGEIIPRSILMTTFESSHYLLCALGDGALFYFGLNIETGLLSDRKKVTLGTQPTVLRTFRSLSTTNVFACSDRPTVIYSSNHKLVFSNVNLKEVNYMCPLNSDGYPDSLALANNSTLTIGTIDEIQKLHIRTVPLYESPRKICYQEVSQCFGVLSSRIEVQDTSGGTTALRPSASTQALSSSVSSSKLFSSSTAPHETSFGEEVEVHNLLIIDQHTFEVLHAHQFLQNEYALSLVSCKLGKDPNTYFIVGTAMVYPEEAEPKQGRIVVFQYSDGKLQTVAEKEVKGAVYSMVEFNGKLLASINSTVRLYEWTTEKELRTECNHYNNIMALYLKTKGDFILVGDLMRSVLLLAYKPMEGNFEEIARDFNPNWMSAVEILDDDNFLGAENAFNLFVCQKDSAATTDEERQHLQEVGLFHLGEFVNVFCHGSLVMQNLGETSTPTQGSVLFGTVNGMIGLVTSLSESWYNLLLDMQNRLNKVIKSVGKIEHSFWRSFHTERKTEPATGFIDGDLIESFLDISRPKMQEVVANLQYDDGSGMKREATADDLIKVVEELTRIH
Method: The binding potency was determined using HTRF assay technology (Perkin Elmer). Compounds were serially diluted in DMSO and […] volume was transferred to white 384-well plate.

ER in MCF-7 cells = ER in MCF-7 cells (Homo sapiens (Human), UniProt P03372); assay: In-cell Western (ICW) ER degradation assay in MCF-7 cells; format: cell-based; conditions: for DC50: MCF-7, ER degradation, read-out: MCF7 DC50; for MCF7 Dmax: MCF-7, maximal ER degradation
Chain of ER in MCF-7 cells (P03372 whole entry): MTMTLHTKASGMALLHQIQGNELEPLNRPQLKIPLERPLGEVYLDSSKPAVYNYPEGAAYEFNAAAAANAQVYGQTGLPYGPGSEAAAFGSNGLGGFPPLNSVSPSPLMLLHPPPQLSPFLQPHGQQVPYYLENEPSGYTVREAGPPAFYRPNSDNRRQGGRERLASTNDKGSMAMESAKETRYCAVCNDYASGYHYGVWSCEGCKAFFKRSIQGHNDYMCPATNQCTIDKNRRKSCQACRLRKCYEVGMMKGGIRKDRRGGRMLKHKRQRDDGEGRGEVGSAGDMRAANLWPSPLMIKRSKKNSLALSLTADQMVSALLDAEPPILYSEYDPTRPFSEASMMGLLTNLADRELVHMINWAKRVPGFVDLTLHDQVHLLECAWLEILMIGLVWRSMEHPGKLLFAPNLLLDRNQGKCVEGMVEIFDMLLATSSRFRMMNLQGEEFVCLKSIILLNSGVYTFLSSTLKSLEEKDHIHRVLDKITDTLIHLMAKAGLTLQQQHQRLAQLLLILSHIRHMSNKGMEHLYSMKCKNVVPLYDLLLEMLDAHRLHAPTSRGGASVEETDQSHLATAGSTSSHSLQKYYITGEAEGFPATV

[1] = maximal ER degradation, 16 hrs treatment, read-out: T47D Dmax
[2] = MCF7, MCF-7, maximal ER degradation, 16 hrs treatment, read-out: MCF7 Dmax
[3] = read-out: T47D Dmax, T47D, maximal ER degradation, 16 hrs treatment
[4] = MCF7, read-out: MCF7 Dmax, MCF-7, maximal ER degradation, 16 hrs treatment

Chain of ER in T47D cells (P03372 whole entry): as above

SMILES: O=C1CC[C@@H](Nc2ccc(C3CCN(C[C@@H]4COC5(CCN(c6ccc([C@@H]7c8ccc(O)cc8CC[C@@H]7c7ccccc7)cc6)CC5)C4)CC3)c(F)c2)C(=O)N1 (single isomer, unassigned) [Compound A62]
DC50 (ER in T47D cells; 16 hrs treatment): 1 to 10 nM
Dmax (ER in T47D cells; [1]): 25 to 50%
IC50 (CRBN/DDB1): 50 to 500 nM
Dmax (ER in MCF-7 cells; [2]): 25 to 50%
DC50 (ER in MCF-7 cells; 16 hrs treatment): 10 to 100 nM

SMILES: O=C1CC[C@H](Nc2ccc(C3CCN(C[C@@H]4COC5(CCN(c6ccc([C@@H]7c8ccc(O)cc8CC[C@@H]7c7ccccc7)cc6)CC5)C4)CC3)c(F)c2)C(=O)N1 (single isomer, unassigned) [Compound A61]
DC50 (ER in T47D cells; 16 hrs treatment): > 100 nM
Dmax (ER in T47D cells; [1]): < 25%
IC50 (CRBN/DDB1): 50 to 500 nM
Dmax (ER in MCF-7 cells; [2]): < 25%
DC50 (ER in MCF-7 cells; 16 hrs treatment): > 100 nM

SMILES: COc1cc(N2CCC3(CC2)CC(CN2CCN4c5ccc(C(=O)N[C@H]6CCC(=O)NC6=O)nc5OC[C@@H]4C2)C3)c(F)cc1[C@@H]1c2ccc(O)cc2CC[C@@H]1c1ccccc1 [Compound A104, (S)-N-((S)-2,6-dioxopiperidin-3-yl)-3-((7-(2-fluoro-4-((1S,2S)-6-hydroxy-2-phenyl-1,2,3,4-tetrahydronaphthalen-1-yl)-5-methoxyphenyl)-7-azaspiro[3.5]nonan-2-yl)methyl)-1,2,3,4,4a,5-hexahydropyrazino[1,2-d]pyrido[2,3-b][1,4]oxazine-8-carboxamide]
DC50 (ER in T47D cells; 16 hrs treatment): < 1 nM
Dmax (ER in T47D cells; [1]): > 75%
IC50 (CRBN/DDB1): > 5000 nM
Dmax (ER in MCF-7 cells; [2]): 50 to 75%
DC50 (ER in MCF-7 cells; 16 hrs treatment): 1 to 10 nM

SMILES: COc1cc(N2CCC3(CC2)CC(CN2CCC(c4ccc(N[C@H]5CCC(=O)NC5=O)c(F)c4)CC2)C3)ccc1[C@@H]1c2ccc(O)cc2CC[C@@H]1c1ccccc1 (single isomer, unassigned) [Compound A109]
DC50 (ER in T47D cells; 16 hrs treatment): < 1 nM
Dmax (ER in T47D cells; [1]): 50 to 75%
IC50 (CRBN/DDB1): 500 to 5000 nM
Dmax (ER in MCF-7 cells; [2]): 25 to 50%
DC50 (ER in MCF-7 cells; 16 hrs treatment): < 1 nM

SMILES: O=C1CC[C@H](NC(=O)c2ccc3c(n2)OC[C@H]2CN(C[C@H]4COC5(CCN(c6ccc([C@H]7c8ccc(O)cc8CC[C@H]7c7ccccc7)cc6)CC5)C4)CCN32)C(=O)N1 (single isomer, unassigned) [Compound A15]
DC50 (ER in T47D cells; 16 hrs treatment): 10 to 100 nM
Dmax (ER in T47D cells; [1]): 25 to 50%
IC50 (CRBN/DDB1): 500 to 5000 nM
Dmax (ER in MCF-7 cells; [2]): 25 to 50%
DC50 (ER in MCF-7 cells; 16 hrs treatment): 10 to 100 nM

DC50 (ER in T47D cells; 16 hrs treatment): < 1 nM
T47D Dmax (ER in T47D cells; maximal ER degradation, 16 hrs treatment): B (“B”: >50 and <75%)
IC50 (CRBN/DDB1): 50 to 500 nM
DC50 (ER in MCF-7 cells; 16 hrs treatment): < 1 nM
MCF7 Dmax (ER in MCF-7 cells; 16 hrs treatment): B (“B”: >50 and <75%)
SMILES: COc1cc(N2CCC3(CC2)CC(CN2CCC(c4ccc(NC5CCC(=O)NC5=O)cc4F)CC2)C3)ccc1[C@@H]1c2ccc(O)cc2CC[C@@H]1c1ccccc1 (stereo in doubt) [Compound A106, (R)-3-((3-fluoro-4-(1-((7-(4-((1S,2S)-6-hydroxy-2-phenyl-1,2,3,4-tetrahydronaphthalen-1-yl)-3-methoxyphenyl)-7-aza-spiro[3.5]nonan-2-yl)methyl)-piperidin-4-yl)phenyl)amino)-piperidine-2,6-dione]

SMILES: O=C1CC[C@H](Nc2ccc(C3CCN(C[C@@H]4COC5(CCN(c6ccc([C@H]7c8ccc(O)cc8CC[C@H]7c7ccccc7)cc6)CC5)C4)CC3)c(F)c2)C(=O)N1 (single isomer, unassigned) [Compound A59]
DC50 (ER in T47D cells; 16 hrs treatment): > 100 nM
Dmax (ER in T47D cells; [1]): < 25%
IC50 (CRBN/DDB1): 50 to 500 nM
Dmax (ER in MCF-7 cells; [2]): < 25%
DC50 (ER in MCF-7 cells; 16 hrs treatment): < 1 nM

SMILES: COc1cc(N2CCC3(CC2)CC(CN2CCC4(CC2)COc2c4ccc4c2CN([C@H]2CCC(=O)NC2=O)C4=O)CO3)ccc1[C@@H]1c2ccc(O)cc2CC[C@@H]1c1ccccc1 (stereo partly drawn) [Compound A55, (3S)-3-(1′-((8-(4-((1S,2S)-6-hydroxy-2-phenyl-1,2,3,4-tetrahydronaphthalen-1-yl)-3-methoxyphenyl)-1-oxa-8-azaspiro[4.5]decan-3-yl)meth-yl)-6-oxo-6,8-dihydro-2H,7H-spiro[furo[2,3-e]isoindole-3,4′-piperidin]-7-yl)piperidine-2,6-dione]
DC50 (ER in T47D cells; 16 hrs treatment): 1 to 10 nM
Dmax (ER in T47D cells; [3]): 50 to 75%
IC50 (CRBN/DDB1): < 50 nM
Dmax (ER in MCF-7 cells; [4]): 25 to 50%
DC50 (ER in MCF-7 cells; 16 hrs treatment): 10 to 100 nM

SMILES: COc1cc(N2CCC(CN3CC[C@]4(c5ccc(N[C@H]6CCC(=O)NC6=O)cc5)[C@H](C3)C4(F)F)CC2)ccc1[C@@H]1c2ccc(O)cc2CC[C@@H]1c1ccccc1 [Compound A90, (S)-3-((4-((1R,6R)-7,7-difluoro-3-((1-(4-((1S,2S)-6-hydroxy-2-phenyl-1,2,3,4-tetra-hydronaphthalen-1-yl)-3-meth-oxyphenyl)piperidin-4-yl)meth-yl)-3-azabicyclo[4.1.0]heptan-6-yl)phenyl)amino)piperidine-2,6-dione]
DC50 (ER in T47D cells; 16 hrs treatment): < 1 nM
Dmax (ER in T47D cells; [3]): 25 to 50%
IC50 (CRBN/DDB1): > 5000 nM
Dmax (ER in MCF-7 cells; [4]): 25 to 50%
DC50 (ER in MCF-7 cells; 16 hrs treatment): < 1 nM

SMILES: COc1cc(N2CCC3(CC2)CC(CN2CCN4c5cc6c(cc5OC[C@@H]4C2)C(=O)N([C@H]2CCC(=O)NC2=O)C6)CO3)ccc1[C@@H]1c2ccc(O)cc2CC[C@@H]1c1ccccc1 (stereo partly drawn) [Compound A57, (3S)-3-((4aS)-3-((8-(4-((1S,2S)-6-hydroxy-2-phenyl-1,2,3,4-tetrahydronaphthalen-1-yl)-3-methoxyphenyl)-1-oxa-8-aza-spiro[4.5]decan-3-yl)methyl)-8-oxo-1,2,3,4,4a,5,8,10-octa-hydro-9H-pyrazino[1′,2′:4,5] [1,4]oxazino[2,3-f]isoindol-9-yl)pipcridinc-2,6-dionc]
DC50 (ER in T47D cells; 16 hrs treatment): 1 to 10 nM
Dmax (ER in T47D cells; [1]): 50 to 75%
IC50 (CRBN/DDB1): 50 to 500 nM
Dmax (ER in MCF-7 cells; [2]): 25 to 50%
DC50 (ER in MCF-7 cells; 16 hrs treatment): 10 to 100 nM

SMILES: O=C1CC[C@H](N2Cc3cc4c(cc3C2=O)OC[C@@H]2CN(CC3CCC5(CC3)CN(c3ccc([C@@H]6c7ccc(O)cc7CC[C@@H]6c6ccccc6)cn3)C5)CCN42)C(=O)N1 [Compound A124, (S)-3-((S)-3-((2-(5-((1S,2S)-6-hydroxy-2-phenyl-1,2,3,4-tetrahydronaphthalen-1-yl)pyridin-2-yl)-2-azaspiro[3.5]nonan-7-yl)methyl)-8-oxo-1,2,3,4,4a,5,8,10-octahydro-9H-pyrazino[1′,2′: 4,5][1,4]oxazino[2,3-f]isoindol-9-yl)piperidine-2,6-dione]
DC50 (ER in T47D cells; 16 hrs treatment): 10 to 100 nM
Dmax (ER in T47D cells; [1]): 50 to 75%
IC50 (CRBN/DDB1): 500 to 5000 nM
DC50 (ER in MCF-7 cells; 16 hrs treatment): 10 to 100 nM
MCF7 Dmax (ER in MCF-7 cells; 16 hrs treatment): B (“B”: >50 and <75%)

SMILES: O=C1CC[C@H](N2Cc3c(ccc4c3OC[C@H]3CN(CC5CCC6(CC5)CN(c5ncc([C@H]7c8ccc(O)cc8CC[C@H]7c7ccccc7)cn5)C6)CCN43)C2=O)C(=O)N1 (single isomer, unassigned) [Compound A155]
DC50 (ER in T47D cells; 16 hrs treatment): 10 to 100 nM
Dmax (ER in T47D cells; [1]): < 25%
IC50 (CRBN/DDB1): 50 to 500 nM
Dmax (ER in MCF-7 cells; [2]): 25 to 50%
DC50 (ER in MCF-7 cells; 16 hrs treatment): 1 to 10 nM

SMILES: COc1cc(C(=O)NC2CCC(=O)NC2=O)ncc1N1CCN(CC2CCN(c3ccc([C@@H]4c5ccc(O)cc5CC[C@@H]4c4ccccc4)cc3)CC2)CC1 (stereo partly drawn) [Compound A5, N-(2,6-dioxopiperidin-3-yl)-5-(4-((1-(4-((1R,2S)-6-hydroxy-2-phenyl-1,2,3,4-tetrahydro-naphthalen-1-yl)phenyl)piper-idin-4-yl)methyl)piperazin-1-yl)-4-methoxypicolinamide]
DC50 (ER in T47D cells; 16 hrs treatment): < 1 nM
Dmax (ER in T47D cells; [1]): 25 to 50%
IC50 (CRBN/DDB1): > 5000 nM
Dmax (ER in MCF-7 cells; [2]): 50 to 75%
DC50 (ER in MCF-7 cells; 16 hrs treatment): < 1 nM

SMILES: COc1cc(N2CCC(CN3CC[C@@]4(c5ccc(N[C@@H]6CCC(=O)NC6=O)cc5)C(C3)C4(F)F)CC2)ccc1[C@@H]1c2ccc(O)cc2CC[C@@H]1c1ccccc1 (mixture of isomers) [Compound A88, (3R)-3-((4-((1R)-7,7-difluoro-3-((1-(4-((1SR,2SR)-6-hydroxy-2-phenyl-1,2,3,4-tetra-hydronaphthalen-1-yl)-3-meth-oxyphenyl)piperidin-4-yl)meth-yl)-3-azabicyclo[4.1.0]heptan-6-yl)phenyl)amino)piperidine-2,6-dione]
DC50 (ER in T47D cells; 16 hrs treatment): < 1 nM
Dmax (ER in T47D cells; [3]): 25 to 50%
IC50 (CRBN/DDB1): > 5000 nM
Dmax (ER in MCF-7 cells; [4]): 50 to 75%
DC50 (ER in MCF-7 cells; 16 hrs treatment): 1 to 10 nM

SMILES: COc1cc(N2CCC(CN3CCN4c5ccc6c(c5OC[C@@H]4C3)CN([C@@H]3CCC(=O)NC3=O)C6=O)CC2)ccc1[C@@H]1c2ccc(O)cc2CC[C@@H]1c1ccccc1 (stereo in doubt) [Compound A23, (R)-3-((S)-7-((1-(4-((1S,2S)-6-hydroxy-2-phenyl-1,2,3,4-tetrahydronaphthalen-1-yl)-3-methoxyphenyl)piperidin-4-yl)methyl)-1-oxo-1,3,5,5a,6,7,8,9-oCtahydro-2H-pyrazino [1′,2′:4,5][1,4]oxazino[2,3-e]isoindol-2-yl)piperidine-2,6-dione]
DC50 (ER in T47D cells; 16 hrs treatment): 10 to 100 nM
Dmax (ER in T47D cells; [1]): 50 to 75%
IC50 (CRBN/DDB1): < 50 nM
Dmax (ER in MCF-7 cells; [2]): 25 to 50%
DC50 (ER in MCF-7 cells; 16 hrs treatment): 10 to 100 nM

SMILES: O=C1CC[C@H](NC(=O)c2ccc3c(n2)OC[C@H]2CN(C[C@@H]4COC5(CCN(c6ccc([C@H]7c8ccc(O)cc8CC[C@H]7c7ccccc7)cc6)CC5)C4)CCN32)C(=O)N1 (single isomer, unassigned) [Compound A16]
DC50 (ER in T47D cells; 16 hrs treatment): < 1 nM
Dmax (ER in T47D cells; [1]): 50 to 75%
IC50 (CRBN/DDB1): 500 to 5000 nM
Dmax (ER in MCF-7 cells; [2]): 50 to 75%
DC50 (ER in MCF-7 cells; 16 hrs treatment): 1 to 10 nM

SMILES: O=C1CC[C@H](Nc2ccc(C3CCN(C[C@H]4COC5(CCN(c6ccc([C@@H]7c8ccc(O)cc8CC[C@@H]7c7ccccc7)cc6)CC5)C4)CC3)cc2)C(=O)N1 (single isomer, unassigned) [Compound A27]
DC50 (ER in T47D cells; 16 hrs treatment): > 100 nM
Dmax (ER in T47D cells; [1]): < 25%
IC50 (CRBN/DDB1): 50 to 500 nM
Dmax (ER in MCF-7 cells; [2]): 25 to 50%
DC50 (ER in MCF-7 cells; 16 hrs treatment): 10 to 100 nM

Source: patent US20260028354A1, “TETRAHYDRONAPHTHALENE DERIVATIVES AS ESTROGEN RECEPTOR DEGRADERS” (REGENT OF THE UNIVERSITY OF MICHIGAN, priority 2022, published 2026)
